Test results reported in ChEMBL document CHEMBL4406878, “Antiviral efficacy of bromo-anilino substituents of 4,5-dihydrofuran-3-carboxylate compound CW-33 against Japanese encephalitis virus” (Bioorg Med Chem Lett, 2019).
pIC50: −log10 of the molar value. Active and inactive are the calls of the source. The rule behind the calls is not given here.

Legend:
[1] = test system: Japanese encephalitis virus; assay: Antiviral activity against Japanese encephalitis virus infected in human TE671 cells assessed as inhibition of intracellular virion production at 10 uM measured at 24 to 48 hrs post-infection by plaque assay; assay type: functional, organism-based
[2] = test system: Japanese encephalitis virus; assay: Antiviral activity against Japanese encephalitis virus infected in human TE671 cells assessed as reduction in virus-induced cytopathic effect at 10 to 100 uM treated immediately post-infection measured at 36 hrs post-infection by inverted microscopic analysis; assay type: functional, organism-based
[3] = test system: Japanese encephalitis virus; assay: Inhibition of synthesis of Japanese encephalitis virus RNA genome transfected as EGFP replicon in human TE671 cells assessed as lowered ratio of negative to positive sense strand RNA at 10 uM treated at 1 hr post-transfection and measured at 36 hrs post treatment by RT-PCR analysis; assay type: functional, organism-based
[4] = test system: Japanese encephalitis virus; assay: Antiviral activity against Japanese encephalitis virus infected in human TE671 cells assessed as decline in infected cell apoptotic fraction by measuring proportion of cells at subG1 phase treated immediately post-infection measured at 36 hrs post-infection by PI-staining based flow cytometric analysis; assay type: functional, organism-based; conditions: for pIC50: TE-671, 36 h
[5] = Cytotoxicity against human TE671 cells assessed as reduction in cell viability after 48 hrs by MTT assay; assay type: cell-based, TE-671
[6] = test system: Japanese encephalitis virus; assay: (§1) Antiviral activity against Japanese encephalitis virus infected in human TE671 cells assessed as reduction in virus infectivity by measuring decrease in NS3-positive cells treated immediately post-infection measured after 24 hrs by DAPI-staining based immunofluorescence analysis; assay type: functional, organism-based; conditions: for pIC50: TE-671, 24 h
[7] = test system: Japanese encephalitis virus; assay: as §1, with “entry at late stage” for “infectivity”, “at 1 hr” for “immediately”, “followed by virus/compound mixture wash-out at 1 hr post-incubation followed by culturing of cells for” for “measured after”; assay type: functional, organism-based; conditions: TE-671
[8] = test system: Japanese encephalitis virus; assay: Antiviral activity against Japanese encephalitis virus infected in human TE671 cells assessed as inhibition of extracellular viral particles production by measuring reduction in virus yield measured after 36 hrs by plaque assay; assay type: functional, organism-based; conditions: for pIC50: TE-671, 36 h
[9] = test system: Japanese encephalitis virus; assay: Antiviral activity against Japanese encephalitis virus infected in human TE671 cells assessed as reduction in virus entry at early stage by measuring decrease in NS3-positive cells treated immediately after viral infection followed by virus/compound mixture wash-out at 1 hr post-incubation followed by culturing of cells for 24 hrs by DAPI-staining based immunofluorescence analysis; assay type: functional, organism-based; conditions: TE-671
[10] = Therapeutic index, ratio of CC50 for human TE671 cells to IC50 for antiviral activity against Japanese encephalitis virus infected in human TE671 cells assessed as reduction in virus yield by plaque assay; assay type: toxicity, cell-based; conditions: read-out: Ratio CC50/IC50
[11] = test system: Japanese encephalitis virus; assay: Antiviral activity against Japanese encephalitis virus infected in human TE671 cells assessed as reduction in virus entry at late stage by measuring decrease in NS3-positive cells at 1 to 10 uM treated at 1 hr post-infection followed by virus/compound mixture wash-out at 1 hr post-incubation followed by culturing of cells for 24 hrs by DAPI-staining based immunofluorescence analysis; assay type: functional, organism-based
Enterovirus A71 = assay: Antiviral activity against Enterovirus A71 infected in human RD cells assessed as reduction in viral yield measured at 48 hrs post-infection by plaque reduction assay; assay type: functional, organism-based; conditions: Enterovirus A
[12] = test system: Japanese encephalitis virus; assay: Antiviral activity against Japanese encephalitis virus infected in hamster BHK-21 cells assessed as reduction in viral yield treated immediately post-viral infection measured at 72 hrs post-infection by plaque assay; assay type: functional, organism-based; conditions: BHK-21, 72 h
[13] = test system: Japanese encephalitis virus; assay: Antiviral activity against Japanese encephalitis virus infected in human TE671 cells assessed as reduction in viral yield treated immediately post-viral infection measured at 72 hrs post-infection by plaque assay; assay type: functional, organism-based; conditions: TE-671, 72 h

| SMILES | inhibition [1] | inhibition [2] | inhibition [3] | inhibition [4] | pIC50 [4] | CC50 at 48 h [5] [µM] | inhibition [6] | pIC50 [6] | pIC50 [7] | inhibition [8] | pIC50 [8] | pIC50 [9] | selectivity ratio [10] | inhibition [11] | pIC50 (Enterovirus A71) | pIC50 [12] | pIC50 [13] |
| --- | --- | --- | --- | --- | --- | --- | --- | --- | --- | --- | --- | --- | --- | --- | --- | --- | --- |
| CCOC(=O)C1=C(Nc2ccccc2Br)OCC1=O | Active | Active | Active | Dose-dependent effect | 5.49 | 232 | Dose-dependent effect | 6.70 | 4.99 | Dose-dependent effect | 5.34 | 6.70 | 50.2 |  |  |  |  |
| CCOC(=O)C1=C(Nc2ccccc2Cl)OCC1=O |  | Active |  | Dose-dependent effect | 4.30 | > 100 |  |  |  |  |  |  |  |  |  |  |  |
| CCOC(=O)C1=C(Nc2cccc(Br)c2)OCC1=O |  | Active | Active | Dose-dependent effect | 5.51 | 151 | Dose-dependent effect | 5.49 |  | Dose-dependent effect | 4.92 |  | 12.4 | Active |  |  |  |
| CCOC(=O)C1=C(Nc2cc(C)cc(C)c2)OCC1=O |  |  |  |  |  |  |  |  |  |  |  |  |  |  | 3.70 | 4.90 | 4.90 |
| CCOC(=O)C1=C(Nc2cccc(Cl)c2)OCC1=O |  | Active |  | inactive |  | > 100 |  |  |  |  |  |  |  |  |  |  |  |
| CCOC(=O)C1=C(Nc2ccc(Br)cc2)OCC1=O |  | Active | inactive | Dose-dependent effect | 5.70 | 129 | Dose-dependent effect | 6.40 |  | Dose-dependent effect | 5.11 |  | 16.6 | Active |  |  |  |
| CCOC(=O)C1=C(Nc2ccc(Cl)cc2)OCC1=O |  | Active |  | inactive |  | > 100 |  |  |  |  |  |  |  |  |  |  |  |
